From US20250302797A1, “COMBINATION THERAPIES FOR TREATING INFLAMMATION” (Flagship Pioneering Innovations VI, LLC, priority 2022, published 2025)

Columns and labels:
[1] = system: Differentiated THP-1 macrophages stimulated with IFN-gamma and LPS; assay: THP1 cytokine secretion assay; type: cell-based, Human; settings: for greatest IL6 inhibition to: IL6 secretion; for greatest TNFa inhibition to: TNFa secretion
Experimental: Human THP-1 cells were plated and differentiated into macrophages through treatment with phorbol 12-myristate 13-acetate and beta-mercaptoethanol for 72 hours. Differentiated THP-1 macrophages were then stimulated with IFN-gamma (20 ng/mL) and LPS (50 ng/mL) to induce an inflammatory response and co-treated with gamma-mangostin and/or luteolin at 0, 0.2, 0.5, 2, 5, 10 uM. Various secreted cytokines were measured from the media using the Ella Automated Immunoassay System (ProteinSimple).

[2] = system: oxazolone-induced ear swelling in mice; assay: Oxazolone-induced dermatitis mouse model: ear thickness; type: in vivo, BALB/c mice; settings: topical 20 μL, 5 mg/mL, 30 minutes before and 15 minutes after oxazolone challenge; measured at 24 hours
Experimental: (§1) Male BALB/c mice weighing 22±2 g are used and randomly divided into groups of 5 each. Sham treatment group receive no oxazolone sensitization and challenge, but PBS, plus treated with vehicle (Acetone:ethanol 1:1). All other groups' animals were sensitized by applying oxazolone (100 μL, 1.5% in acetone) onto their preshaved abdominal surface on Day 0, and challenged by oxazolone (1%, 20 μL/ear) seven (7) days later. 20 μL of either Vehicle, Dexamethasone (5 mg/mL; anti-inflammatory positive control), or a combination of Luteolin (1.6-9.6 mg/mL)+Gamma-mangostin (1.2-7.2 mg/mL) were applied topically to the anterior and posterior surfaces of the right ear 30 minutes before and 15 minutes after oxazolone challenge. Left ear was unstimulated and treated as a control.
(§2) The right and left ear thickness of each mouse were measured at 24 hours after oxazolone challenge as an index of inflammation. The right ear was harvested and snap frozen for cytokine gene expression analysis.

[3] = system: LPS-injected mice; assay: LPS-induced systemic inflammation mouse model: blood cytokine levels; type: in vivo, C57Bl/6 mice; settings: intraperitoneal 1 hour prior to LPS (1 mg/kg); Dexamethasone 5 mg/kg or Luteolin+Gamma-mangostin 4+4.5 mg/kg; serum or plasma
Experimental: C57Bl/6 male mice, 6-8 weeks old, weighing 22±2 g were randomly divided into groups of 5-6 each. Sham animals were injected intra-peritoneally with PBS only. All other groups were intraperitoneally injected with either Vehicle control, Dexamethasone (5 mg/kg), or a combination of Luteolin+Gamma-mangostin (4+4.5 mg/kg) at 1 hour prior to injection with LPS (1 mg/kg), an agent known to trigger systemic inflammation. After LPS injection, blood was collected at different time points: 30 min, 2 h, 4 h and 24 h and the processed serum or plasma were used for further cytokine analysis through LUMINEX or Ella Automated Immunoassay System (Protein Simple).

[4] = system: cytokine gene expression in ears of mice stimulated with oxazolone; assay: Oxazolone-induced dermatitis mouse model: cytokine gene expression in ear; type: in vivo, BALB/c mice; settings: right ear; topical; Dexamethasone 5 mg/mL or Luteolin (1.6-9.6 mg/mL)+Gamma-mangostin (1.2-7.2 mg/mL)
Experimental: as §1, §2

[5] = Luteolin alone at 0.5 uM (0-10 uM tested)
[6] = Gamma-mangostin alone at 10 uM (0-10 uM tested)

**Q.** How did the “greatest IL6 inhibition to” value [1, 5] turn out when `O=c1cc(-c2ccc(O)c(O)c2)oc2cc(O)cc(O)c12` [Luteolin] was run?
**A.** Its value is 53.7%.

**Q.** And the “greatest TNFa inhibition to” value [1, 5]?
**A.** The value was 45.6%.

**Q.** With `CC(C)=CCc1c(O)cc2oc3cc(O)c(O)c(CC=C(C)C)c3c(=O)c2c1O` [Gamma-mangostin, Gamma-Mangostin] as the compound, how does the “greatest IL6 inhibition to” value [1, 6] read?
**A.** Its value is 53%.

**Q.** And the “greatest TNFa inhibition to” value [1, 6]?
**A.** The value was 45%.

**Q.** What does the source list for `C[C@@H]1C[C@H]2[C@@H]3CCC4=CC(=O)C=C[C@]4(C)[C@@]3(F)[C@@H](O)C[C@]2(C)[C@@]1(O)C(=O)CO` [Dexamethasone]?
**A.** reduction in ear thickness compared to the Vehicle-treated ears [2]: 29%; CXCL1 level, % of the Vehicle [3]: 57%; MIP1-beta level, % of the Vehicle [3]: 29%; TNFa level, % of the Vehicle [3]: 12%; Ifng gene expression (% of Vehicle control) [4]: 445%; Il1b gene expression (% of Vehicle control) [4]: 5%; Il4 gene expression (% of Vehicle control) [4]: 24%; Il6 gene expression (% of Vehicle control) [4]: 33%; Il11 gene expression (% of Vehicle control) [4]: 55%; Il13 gene expression (% of Vehicle control) [4]: 20%; Tnfa gene expression (% of Vehicle control) [4]: 14%
